According to US20090325906A1, “Methods and compositions for therapeutic treatment” (priority 2008, published 2009):
Like-named read-outs stand apart in the source and are kept apart here.

Legend:
murine or human T cells = conditions: disrupting calcium signaling events that lead to lymphokine production; cited from earlier work
islet = conditions: 0.01 μmol/liter, after 7-d incubation; cited from earlier work
[1] = system: heart transplant patients; conditions: target range 5-15 ng/mL, tacrolimus treatment arm, European study; cited from earlier work
mouse spleen cells [2] = assay: In vitro LPS assay on spleen cells; assay type: cell-based; conditions: high ([…]10^6 cells/well) and low (8×10^5 cells/well) cell concentration
[3] = system: LEW responder splenocytes (lymphocyte proliferation); assay: Mixed lymphocyte reaction (MLR) with spleen cells of treated Lewis rats; assay type: cell-based, rat
Method: (§1) Animals: 8-9 weeks-old Lewis and Brown Norway male rats are obtained from Charles River Laboratories. General procedures for animal care and housing are in accordance with the National Research Council (NRC) Guide for the Care and Use of Laboratory Animals (1996) and the Animal Welfare Standards incorporated in 9 CFR Part 3, 1991.
(§2) Treatment: Lewis rats are treated with different single doses of LNS 0694 i.p. 30 minutes prior to single i.v. injections of tacrolimus at a concentration of 1 mg/kg as described in the table below.
(§3) Spleens are collected at 4 hr after administration of FK506 for use in the in vitro mixed lymphocyte reaction (MLR) and Con A assays. In addition to treated Lewis rats, spleens are collected from 5 Brown Norway rats (not treated) which are used for the in vitro assay.
Mixed lymphocyte reactions: A single cell suspension of the spleen of each rat on test (LEW, responder) is prepared with a Dounce homogenizer and wash-medium. The cell suspension is depleted of red blood cells (treatment with NH4CL/Tris buffer) and washed twice with wash medium before resuspending in complete medium (CM; RPMI 1640 with 5% heat-inactivated (30 minutes at 56° C.) normal rat serum (from Lewis rats), 2 mM GlutaMAX, 100 U/ml penicillin and 100 μg/ml streptomycin mixture, and 55 μM 2-mercaptoethanol). A single cell suspension of splenocytes from five Brown Norway rats (BN, stimulators) is prepared with the same method. The BN splenocytes are pooled and irradiated with 1,500-2,000 rad (cesium source) before use.
Varying numbers of responder cells are mixed with a constant number of stimulators (105) in 96-well, U-bottom cell culture plates to give a final responder:stimulator (R:S) ratio of 10:1, 5:1, 1:1 and 0.5:1 in 200 μl CM. Control wells for each cell suspension contained 10^5 responders alone in medium and 105 pooled, irradiated stimulators alone in medium (separate wells). For a positive proliferative response, each responder (10^5) is treated with 2.5 μg/ml Con A. […]
The results of the MLR assays [thymidine incorporation as counts per minute (CPM)] are expressed as mean±SD.

mouse spleen cells [4] = assay: In vitro Con A assay on spleen cells; assay type: cell-based; conditions: for response of spleen cells to Con A (proliferation): high ([…]10^6 cells/well) and low (8×10^5 cells/well) cell concentration
Method: as §1, with “housing is” for “housing are”
Spleens are collected for use in in vitro Con A and LPS assays.
Spleen cells are treated with Con A in the presence of vehicle, tacrolimus, quercetin or two different concentrations of tacrolimus (10^−8.2 and 10^−8.5 M) and increasing doses of quercetin at a high cell concentration (FIG. 13) or at a low cell concentration (FIG. 14). […] There is no significance difference between the effect of quercetin on tacrolimus induced cell suppression in vitro at the different concentrations used for quercetin. The same results are observed in cultures with low cell concentration (FIG. 14).

[5] = system: renal transplant recipients; conditions: cited from earlier work
[6] = system: liver transplant patients; conditions: two liver transplant trials; 514 patients tacrolimus and steroids, 515 patients CBIR; cited from earlier work
rats = assay type: in vivo
Method: Animals: 8-9 weeks-old rats are used. General procedures for animal care and housing are in accordance with the National Research Council (NRC) Guide for the Care and Use of Laboratory Animals (1996) and the Animal Welfare Standards incorporated in 9 CFR Part 3, 1991.
Treatment: Rats are treated i.v with FK506 and i.p. with Quercetin. Rats receive daily administrations containing either 0.5 mg/kg or 2 mg/kg of FK506 approximately one hour after the start of the light cycle. Rats are treated 30 minutes prior to FK506 treatment with quercetin at three different concentrations, 10 mg/kg, 25 mg/kg or 200 mg/kg. Subsets of 5 rats per group are used for blood sampling at each time point. Blood is collected for glucose measurement on days 0, 5, 9, and 14.

[7] = Pharmacokinetics of FK 506 in male Lewis rats, whole blood drug levels; assay type: in vivo; conditions: FK 506 1 mg/kg i.v. with i.p. LNS 0694 at different doses
Method: as §1, with “housing is” for “housing are”
Treatment: Lewis rats are treated as described in example 3. Subsets of 3 Lewis rats per group are used for blood sampling at each time point (Groups 2-5) as described in the table below.
Plasma Blood Sample Collection: Whole blood is collected from the retro-orbital sinus under 60:40 CO2:O2 anesthesia using EDTA as the anticoagulant. Sample collection is performed at 9 time points: 5, 15, and 30 min and 1, 2, 4, 6, 8, & 24 hr after administration of FK 506. Three samples are collected from each rat per group (Groups 2-5). The first 2 samples are collected under anesthesia, after which the animal regains consciousness and is retained until the next collection interval. […]
Drug levels are determined in collected whole blood samples using a bioanalytical method developed to detect parent drug levels.
Results: The pharmacokinetics parameters of FK 506 are determined in male Lewis rats after 1 mg/kg i.v. administration alone or in combination with i.p, administration of different doses of LNS 0694 (See FIG. 15).

[8] = system: LEW responder splenocytes activated with Con A; assay: Con A stimulated proliferation of spleen cells of treated Lewis rats; assay type: cell-based, rat; conditions: LNS 0694 i.p. before FK 506 1 mg/kg i.v.
Method: as §2, §3
Varying numbers of responder cells are mixed with a constant number of stimulators (105) in 96-well, U-bottom cell culture plates to give a final responder:stimulator (R:S) ratio of 10:1, 5:1, 1:1 and 0.5:1 in 200 μl CM. Control wells for each cell suspension contained 10^5 responders alone in medium and 105 pooled, irradiated stimulators alone in medium (separate wells). For a positive proliferative response, each responder (10^5) is treated with 2.5 μg/ml Con A.
Cultures are incubated at 37±° 1 C. for 72±2 hours in 5±1% CO2 humidified air. Each well is pulsed with 1 μCi tritiated thymidine for 18±2 hours before automatic harvesting and analysis in a liquid scintillation counter.

[9] = quercetin or a quercetin derivative; cited from earlier work
[10] = Solubility of quercetin with sulfobutylether-7-β-cyclodextrin and meglumine; assay type: physicochemical; conditions: Captisol 30% w/v, Meglumine 44 mM, room temperature, about 10 minutes, excess solids removed
Method: Sulfobutylether-7-β-cyclodextrin (Captisol™) is dissolved in water to form a solution at 30% w/v. To the Captisol solution is added Meglumine at a concentration of 44 mM and […] at a concentration of about 20 mg/ml. The solution is stirred at room temperature for about 10 minutes. The solution is separated from any excess solids (e.g. by filtration). The concentration of quercetin in the solution is about 9.2 mg/mL.

[11] = cited from earlier work
[12] = Sulfobutylether-7-β-cyclodextrin quercetin aqueous composition: concentration and storage stability; assay type: physicochemical; conditions: 10 mg/ml in water with sulfobutylether-7-β-cyclodextrin
Method: The flask is placed in an ice bath. When all of the Captisol is dissolved, 1.24 g of quercetin (Micron Technologies) (equivalent to about 1 g of anhydrous quercetin) is added with stirring. Into the flask, 12 ml of 1 N sodium hydroxide is added over about 5 to 10 minutes. […] Into the flask is then added 10.5 ml of hydrochloric acid over 5 to 10 minutes at a slow enough rate to avoid precipitation. During the addition of the sodium hydroxide and the hydrochloric acid, the temperature is maintained at less than 20° C. DI water is then added to give total volume of 100 ml. This procedure results in a sulfobutylether-7-β-cyclodextrin-quercetin aqueous composition at a concentration of 10 mg/ml (33 mM) in quercetin at a pH of about 7.8.

## C=CC[C@@H]1/C=C(\C)C[C@H](C)C[C@H](OC)[C@H]2O[C@@](O)(C(=O)C(=O)N3CCCC[C@H]3C(=O)O[C@H](/C(C)=C/[C@@H]3CC[C@@H](O)[C@H](OC)C3)[C@H](C)[C@@H](O)CC1=O)[C@H](C)C[C@@H]2OC (relative stereo) [tacrolimus, [3S-[3R[E(1S*,3S*,4S*)], 4S*,5R*,8S*,9E,12R*,14R*,15S*,16R*,18S*,19S*,26aR*]]-,6,8,11,12,13,14,15,16,17,18,19,24,25,26,26a-hexadecahydro-5,19-dihydroxy-3-[2-(4-hydroxy-3-methoxycyclohexyl)-1-methylethenyl]-14,16-dimethoxy-4,10,12,18-tetramethyl-8-(2-propenyl)-15,19-epoxy-3H-pyrido[2,1-c][1,4]oxaazacyclotricosine-1,7,20,21(4H,23H)-tetrone, monohydrate]
Murine or human T cells
  potency relative to CsA: 50-100 fold
islet
  glucose-stimulated insulin secretion, of the control value: 32±5%
[1]
  patients with trough concentrations within the pre-defined target range: 74-86%
Mouse spleen cells [2]
  response of spleen cells to LPS (proliferation): inhibits LPS-induced proliferation in a dose dependent manner
[3]; FK 506 1 mg/kg i.v., spleens collected at 4 hr
  lymphocyte proliferation in MLR (thymidine incorporation): inhibited
[3]; FK 506 1 mg/kg i.v., R:S ratios 0.5:1, 1:1, 5:1
  inhibitory effect on MLR by R:S ratio: stronger inhibitory effect at lower R:S ratios
Mouse spleen cells [4]
  response of spleen cells to Con A (proliferation): inhibits Con A-induced proliferation in a dose dependent manner
[5]; Japan
  incidence of posttransplant diabetes mellitus (PTDM): 31.4%
[5]; western countries
  incidence of posttransplant diabetes mellitus (PTDM): 10-30%
[6]
  proportion of patients reporting more than one adverse event: 99.8%
rats; rat, in vivo, 0.5 mg/kg
  percent change of glucose blood level: greater increase

## O=c1c(O)c(-c2ccc(O)c(O)c2)oc2cc(O)cc(O)c12 [LNS 0694]
[7]
  peripheral bioavailability of FK506: increases the peripheral bioavailability of FK506 in a dose dependent manner
[8]
  FK 506 inhibitory effect on lymphocyte proliferation after Con A: increases FK 506 inhibitory effect
[3]; LNS 0694 50, 150, 300 mg/kg i.p. 30 minutes before FK 506 1 mg/kg i.v.
  FK 506 inhibitory effect on lymphocyte proliferation in MLR: increases FK 506 inhibitory effect in a dose-dependent manner

## O=c1c(O)c(-c2ccc(O)c(O)c2)oc2cc(O)cc(O)c12 [quercetin]
Mouse spleen cells [2]
  response of spleen cells to LPS (proliferation): no significant effect
[9]
  serum half-life: 19 to 25 h
Mouse spleen cells [4]; Con A, tacrolimus 10^−8.2 and 10^−8.5 M with increasing doses of quercetin, high cell concentration
  tacrolimus induced cell suppression in vitro: does not impair
Mouse spleen cells [4]; conclusion of Example 6
  effect of tacrolimus on cells: does not alter
Mouse spleen cells [4]
  response of spleen cells to Con A (proliferation): no significant effect
[10]
  concentration of quercetin in the solution: about 9.2 mg/mL
[11]; above pH 5
  stability in solution: degradation
[11]; below pH 3
  stability in solution: stable
[12]
  stability of solution to precipitation: stable for more than two weeks without precipitation
rats; FK506 0.5 mg/kg i.v. daily, quercetin i.p. 30 minutes before, FIG. 2
  FK506 induced hyperglycemia: decreases
rats; FK506 0.5 mg/kg, quercetin 10, 25 and 200 mg/kg
  increase of glucose blood levels by FK506: reduced
rats; FK506 2 mg/kg + quercetin 10 mg/kg, day 9
  increase of blood glucose (percent change): 60%
rats; FK506 2 mg/kg + quercetin 25 mg/kg, day 9
  increase of blood glucose (percent change): 90%
rats; FK506 2 mg/kg + quercetin 200 mg/kg, day 9
  percent change of blood glucose: reduced to the levels similar to rats treated with vehicle alone
rats; FK506 2 mg/kg i.v. daily, quercetin i.p. 30 minutes before, FIG. 1
  FK506 induced hyperglycemia: decreases
rats; FK506 2 mg/kg, day 5, quercetin 10, 25 and 200 mg/kg
  increase in glucose blood levels by FK506: reduced
rats; FK506 2 mg/kg, day 9, quercetin 10, 25 and 200 mg/kg
  increase of glucose blood levels by FK506: reduced
rats; conclusion of Example 4, both FK506 doses
  FK506 induced hyperglycemia: decreases
